# Results taken from ChEMBL document CHEMBL3792309, “Seeking potent anti-tubercular agents: Design, synthesis, anti-tubercular activity and docking study of various ((triazoles/indole)-piperazin-1-yl/1,4-diazepan-1-yl)benzo[d]isoxazole derivatives” (Bioorg Med Chem Lett, 2016).
# System: Mycobacterium tuberculosis
# Experiment: Antimicrobial activity against p-aminosalicylic acid/isonicotinic acid hydrazide/etambutol/rifampicin resistant Mycobacterium tuberculosis Spec. 210 by classical test tube method
# Format: functional
row,Compound,MIC [µM]
1,O=C(CCCc1c[nH]c2ccccc12)N1CCN(c2noc3cc(Cl)ccc23)CC1,> 200
2,Brc1ccc(-n2cc(CN3CCN(c4noc5ccccc45)CC3)nn2)cc1,> 200
3,O=C(Cc1c[nH]c2ccccc12)N1CCN(c2noc3cc(Cl)ccc23)CC1,127
4,CCc1ccc(-n2cc(CN3CCN(c4noc5ccccc45)CC3)nn2)cc1,> 200
5,O=C(CCCc1c[nH]c2ccccc12)N1CCN(c2noc3ccccc23)CC1,> 200
6,FC(F)(F)c1cccc(-n2cc(CN3CCN(c4noc5ccccc45)CC3)nn2)c1,29.2
7,Clc1ccc(-n2cc(CN3CCN(c4noc5cc(Cl)ccc45)CC3)nn2)cc1,> 200
8,CCc1ccc(-n2cc(CN3CCN(c4noc5cc(Cl)ccc45)CC3)nn2)cc1,> 200
9,O=[N+]([O-])c1ccc(-n2cc(CN3CCCN(c4noc5ccccc45)CC3)nn2)cc1,> 200
10,Fc1ccc(-n2cc(CN3CCCN(c4noc5ccccc45)CC3)nn2)cc1,127
11,O=[N+]([O-])c1ccc(-n2cc(CN3CCN(c4noc5cc(Cl)ccc45)CC3)nn2)cc1,> 200
12,C#CCN1CCN(c2noc3ccccc23)CC1,> 200
13,COc1ccc(-n2cc(CN3CCCN(c4noc5ccccc45)CC3)nn2)cc1,> 200
14,Fc1ccc(-n2cc(CN3CCN(c4noc5cc(Cl)ccc45)CC3)nn2)cc1,121
15,O=C(CCc1c[nH]c2ccccc12)N1CCN(c2noc3cc(Cl)ccc23)CC1,> 200
16,O=C(CCCc1c[nH]c2ccccc12)N1CCCN(c2noc3ccccc23)CC1,> 200
17,NNC(=O)c1ccncc1 [ISONIAZID],91.1
18,COc1ccc(-n2cc(CN3CCN(c4noc5ccccc45)CC3)nn2)cc1,> 200
19,O=C(CCc1c[nH]c2ccccc12)N1CCCN(c2noc3ccccc23)CC1,> 200
20,COc1ccc(-n2cc(CN3CCN(c4noc5cc(Cl)ccc45)CC3)nn2)cc1,118

row,Compound,MIC [µM]
1,Clc1ccc(-n2cc(CN3CCCN(c4noc5ccccc45)CC3)nn2)cc1,> 200
2,Clc1ccc2c(N3CCN(Cc4cn(-c5ccc(Br)cc5)nn4)CC3)noc2c1,> 200
3,FC(F)(F)c1cccc(-n2cc(CN3CCCN(c4noc5ccccc45)CC3)nn2)c1,28.3
4,O=C(Cc1c[nH]c2ccccc12)N1CCCN(c2noc3ccccc23)CC1,134
5,C#CCN1CCCN(c2noc3ccccc23)CC1,196
6,COc1cccc(-n2cc(CN3CCN(c4noc5ccccc45)CC3)nn2)c1,128
7,FC(F)(F)c1cc(-n2cc(CN3CCN(c4noc5ccccc45)CC3)nn2)ccc1Br,6.16
8,O=C(Cc1c[nH]c2ccccc12)N1CCN(c2noc3ccccc23)CC1,> 200
9,C#CCN1CCN(c2noc3cc(Cl)ccc23)CC1,> 200
10,Brc1ccc(-n2cc(CN3CCCN(c4noc5ccccc45)CC3)nn2)cc1,> 200
11,Clc1ccc(-n2cc(CN3CCN(c4noc5ccccc45)CC3)nn2)cc1,> 200
12,Fc1ccc(-n2cc(CN3CCN(c4noc5ccccc45)CC3)nn2)cc1,132
13,O=C(CCc1c[nH]c2ccccc12)N1CCN(c2noc3ccccc23)CC1,> 200
14,Clc1cccc(-n2cc(CN3CCN(c4noc5ccccc45)CC3)nn2)c1,63.4
15,O=[N+]([O-])c1ccc(-n2cc(CN3CCN(c4noc5ccccc45)CC3)nn2)cc1,> 200
16,CCc1ccc(-n2cc(CN3CCCN(c4noc5ccccc45)CC3)nn2)cc1,> 200
17,COc1cccc(-n2cc(CN3CCCN(c4noc5ccccc45)CC3)nn2)c1,> 200
18,Clc1cccc(-n2cc(CN3CCCN(c4noc5ccccc45)CC3)nn2)c1,122
19,FC(F)(F)c1cc(-n2cc(CN3CCCN(c4noc5ccccc45)CC3)nn2)ccc1Br,24
